Test results from patent US5403850A, “Derivatives of P-substituted phenyl ester of pivalic acid” (Ono Pharmaceutical Co., Ltd., priority 1988, dated 1995).
Structures can show the parent of a compound that is named as a salt.

Biological target: T1, elastase from human neutrophil (Homo sapiens, UniProt P08246)
T1 construct: elastase from human neutrophil; from tissue; host or cells: human neutrophil
T1 sequence (P08246 30-247 limits assumed): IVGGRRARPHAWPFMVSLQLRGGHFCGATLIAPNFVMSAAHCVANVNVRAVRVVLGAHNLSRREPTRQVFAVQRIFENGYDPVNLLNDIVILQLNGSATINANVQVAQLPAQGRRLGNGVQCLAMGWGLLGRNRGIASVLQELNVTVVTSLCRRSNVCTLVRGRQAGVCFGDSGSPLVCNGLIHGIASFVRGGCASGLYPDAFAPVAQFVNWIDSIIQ
Test: Inhibitory effect on elastase (spectrophotometric, Suc-Ala-Pro-Ala-pNA substrate)
Type: biochemical
Details: 1 mM Suc-Ala-Pro-Ala-pNA, tris-hydrochloric acid pH 8.0, 37° C. for 30 minutes, absorbance 405 nm
Description: The reaction mixture consisted of 1 mM Suc-Ala-Pro-Ala-pNA (dissolving in N-methylpyrrolidone to the concentration of 100 mM, and then adding 1/100 amount of the solution to the reaction mixture.), 0.1 M buffer solution of tris-hydrochloric acid (pH 8.0), 0.2 M sodium chloride aqueous solution, the sample solution of various concentrations and enzyme solution in a final volume of 1.0 ml was incubated at 37° C. for 30 minutes.
Inhibition percentage of the test compounds was calculated by the following equation: [formula]

SMILES | IC50 [nM]
CC(C)(C)C(=O)Oc1ccc(S(=O)(=O)NCCc2ccccc2)cc1 [4(5), p-(N-phenethylsulfamoyl)phenyl ester of pivalic acid] | 72
CSCCC(NC(=O)c1ccccc1NS(=O)(=O)c1ccc(OC(=O)C(C)(C)C)c(C)c1)C(=O)O (racemic) [2(68), N-[o-(3-methyl-4-pivaloyloxybenzene)sulfonylaminobenzoyl]-dl-methionine] | 200
Cc1cc(S(=O)(=O)Nc2ccccc2C(=O)N[C@@H](CCCCN)C(=O)O)ccc1OC(=O)C(C)(C)C [2(69), N-[o-(3-methyl-4-pivaloyloxybenzene)sulfonylaminobenzoyl]-L-lysine. hydrochloride] | 520
Cc1cc(S(=O)(=O)Nc2ccccc2C(=O)N2CCC[C@H]2C(=O)O)ccc1OC(=O)C(C)(C)C [2(62), 2-methyl-4-[N-(2-prolylcarbonylphenyl)sulfamoyl] phenyl ester of pivalic acid] | 690
Cc1cc(S(=O)(=O)Nc2ccccc2OCCCC(=O)O)ccc1OC(=O)C(C)(C)C [2(51), 2-methyl-4-[N-(o-carboxypropoxy-phenyl)sulfamoyl]phenyl ester of pivalic acid] | 640
CC(C)(C)C(=O)Oc1ccc(S(=O)(=O)Nc2ccccn2)cc1 [1(14), p-[N-(α-pyridyl)sulfamoyl]phen-yl ester of pivalic acid] | 190
CC(C)(C)NS(=O)(=O)c1ccc(OC(=O)C(C)(C)C)cc1 [2(5), p-(N-tert-butylsulfamoyl)phenyl ester of pivalic acid] | 53
CC(C)(C)C(=O)Oc1ccc(S(=O)(=O)n2ccnc2)cc1 [1(12), p-[(1-imidazolyl)sulfonyl]phenyl ester of pivalic acid] | 50

More lines, in order of falling IC50, values ahead:

IC50 [nM] | SMILES
770 | CC(C)(C)C(=O)Oc1ccc(S(N)(=O)=O)cc1 [1(2), p-sulfamoylphenyl ester of pivalic acid]
410 | Cc1cc(S(=O)(=O)Nc2ccccc2C(=O)N[C@@H](Cc2ccccc2)C(=O)O)ccc1OC(=O)C(C)(C)C [2(67), N-[o-(3-methyl-4-pivaloyloxybenzene)sulfonylaminobenzoyl]-L-phenylalanine]
150 | Cc1cc(S(=O)(=O)Nc2cccc3c2OC(C(=O)O)CO3)ccc1OC(=O)C(C)(C)C (stereo not shown) [2(49), 2-methyl-4-[N-(1,4-dioxa-2-carboxy-8-yl-naphthalene)sulfamoyl]phenyl ester of pivalic]
72 | CCN(CC)C(=O)COC(=O)c1ccccc1NS(=O)(=O)c1ccc(OC(=O)C(C)(C)C)c(C)c1 [2(38), 2-methyl-4-[N-(o-(N,N-diethyl-carbamoylmethoxycarbonyl)phehyl)sulfamoyl]phenyl ester of pivalic acid]
48 | CC(=O)Oc1ccc(N(S(=O)(=O)c2ccc(OC(=O)C(C)(C)C)cc2)S(=O)(=O)c2ccc(OC(=O)C(C)(C)C)cc2)cc1 [1(15)]
42 | CC(C)(C)C(=O)Oc1ccc(S(=O)(=O)NC2CCCCC2)cc1 [1(3), p-(N-cyclohexylsulfamoyl)phenyl ester of pivalic acid]
31 | CN(c1ccc(Br)cc1)S(=O)(=O)c1ccc(OC(=O)C(C)(C)C)cc1 [Example 1, p-[N-(p-bromophenyl)-N-methylsulfamoyl] phenyl ester of pivalic]
30 | CC(C)(C)C(=O)Oc1ccc(S(=O)(=O)Nc2ccc(Cl)cc2)cc1 [1(8), p-[N-(4-chlorophenyl)sulfamoyl] phenyl ester of pivalic acid]
24 | CCCSc1ccc(NS(=O)(=O)c2ccc(OC(=O)C(C)(C)C)cc2)c(C(=O)NCC(=O)O)c1 [2(87), N-[2-(p-pivaloyloxybenzene)sulfonylamino-5-propylthiobenzoyl] glycine]
23 | CC(C)(C)C(=O)Oc1ccc(S(=O)(=O)Nc2ccccc2C(=O)O)cc1 [5(3), p-[N-(o-carboxyphenyl)sulfamoyl] phenyl ester of pivalic acid]
21 | CSc1ccc(NS(=O)(=O)c2ccc(OC(=O)C(C)(C)C)cc2)c(C(=O)NCC(=O)O)c1 [2(80), N-[5-methylthio-2-(p-pivaloyoxy-benzene)sulfonylaminobenzoyl] glycine]
